IC50 data for 46 compounds are collected here from patent US9550763B2, “Heterocyclic ring and carbocyclic derivative” (Shionogi & Co., Ltd., priority 2012, dated 2017).

Each structure is given as a SMILES string.

Assay [1] has as its target T1, human P2X3 receptor (Homo sapiens (Human), UniProt P56373). Put plainly: Evaluation of human P2X3 receptor inhibitory activity (Test Example 1-1, FDSS 3000, 96-well, 50 nM ATP). The format is cell-based. The note with it: human P2X3 receptor in C6BU-1 cells; Test Example 1-1 (compounds I-001 to I-300). In outline:
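C6BU-1 cells stably expressing human P2X3, loaded with 4 μM Fluo-3-AM (pH 7.5), preincubated 5 min with compound before 50 nM ATP challenge; fluorescence followed 4 min on FDSS 3000. IC50 derived from peak/baseline fluorescence ratio, no-compound as 0% and buffer-instead-of-ATP as 100% inhibition.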

Assay [2] has as its target T1, human P2X3 receptor. Put plainly: Evaluation of human P2X3 receptor inhibitory activity (Test Example 1-2, FLIPR 384, 384-well, 150 nM ATP). It counts as cell-based. As to conditions: human P2X3 receptor in C6BU-1 cells; Test Example 1-2 (compounds I-301 to I-483); read-out: P2X3 IC50. How it is done:
Stably expressing cell line (C6BU-1 cell transfected with human P2X3 receptor gene (GenBank accession number Y07683) was used. The cells were seeded in a 384-well microtiter plate at a concentration of 3000 cells/well and cultured in the medium (7.0% fetal bovine serum, 7.0% horse serum, 1% antibiotic and antifungal in DMEM) for one day at 37° C. under 5% carbon dioxide atmosphere. The medium was replaced with 4 μM Fluo-3-AM solution (20 mM HEPES, […], 5.27 mM KCl, 0.9 mM MgCl2, 1.26 mM CaCl2, 5.6 mM D-glucose, 2.5 mM probenecid, 0.5% BSA, and 0.04% Pluronic F-127, pH 7.5) and incubated at 37° C. under 5% dioxide carbon atmosphere for one hour. The plate was washed with washing buffer (20 mM HEPES, 137 mM NaCl, 5.27 mM KCl, 0.9 mM MgCl2, 1.26 mM CaCl2, 5.6 mM D-glucose, 2.5 mM probenecid, pH7.5), and each well was added with 20 μL of this buffer. The plate was placed in High-Throughput Screening System FLIPR 384 (Molecular Device Co.). Measurement of fluorescence intensity by FLIPR 384 was started, and 20 μL of DMSO solutions containing different concentrations of the test compound as prepared by dilution with dilution buffer (20 mM HEPES, 137 mM NaCl, 5.27 mM KCl, 0.9 mM MgCl2, 1.26 mM CaCl2, 5.6 mM D-glucose, 2.5 mM probenecid, 0.1% Pluronic F-127, pH 7.5) were dispensed to each well through the built-in automatic dispenser. Five minutes after, 150 nM ATP solution (25 μL) prepared by dilution with the dilution buffer was dispensed through the built-in automatic dispenser, and the measurement of fluorescence intensity was continued for 4 min. For each well, the specific maximum fluorescence intensity was calculated as the ratio of the maximum fluorescence intensity after addition of the ATP solution to the fluorescence intensity at the starting of the measurement. The 50% inhibitory concentration (IC50) was calculated under the assumption that the specific maximum fluorescence intensity without test compound is 0% inhibition and that the specific maximum fluorescence intensity when the dilution buffer was added in place of ATP solution is 100% inhibition, to evaluate the inhibitory activity of the test compound. The specific maximum fluorescence intensity and IC50 were calculated using Spotfire (Science & Technology Systems, Inc.)
The data of the compounds I-001 to I-300 are the results by the method mentioned in Test Example 1-1, and the data of the compounds I-301 to I-483 are the results by the method mentioned in Test Example 1-2.

T1 sequence (P56373 whole entry): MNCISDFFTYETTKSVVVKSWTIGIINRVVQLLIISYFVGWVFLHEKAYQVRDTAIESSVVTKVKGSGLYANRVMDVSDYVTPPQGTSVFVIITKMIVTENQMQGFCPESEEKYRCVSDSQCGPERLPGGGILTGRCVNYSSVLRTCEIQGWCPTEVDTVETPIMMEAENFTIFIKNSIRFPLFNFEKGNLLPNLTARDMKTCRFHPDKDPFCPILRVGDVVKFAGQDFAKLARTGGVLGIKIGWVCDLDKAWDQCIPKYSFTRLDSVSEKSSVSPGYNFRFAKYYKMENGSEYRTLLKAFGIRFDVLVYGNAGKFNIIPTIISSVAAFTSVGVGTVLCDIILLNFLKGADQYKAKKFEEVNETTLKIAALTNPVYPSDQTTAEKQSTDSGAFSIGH

With `CCC(=O)Nc1c[nH]/c(=N\c2ccc(Oc3ccnc(C(N)=O)c3)cc2)n(Cc2ccc(Cl)cn2)c1=O` [Compound I-277], in assay [1], the IC50 was 172 nM.

Compound `Cc1cnc(-c2c[nH]/c(=N\c3ccc(Oc4cccc(C#N)n4)cc3)n(Cc3ccc(Cl)cc3)c2=O)o1` [Compound I-278, 1-(4-chlorobenzyl)-2-[4-(6-cyano-2-pyridyloxy)phenylamino]-5-(5-methyloxazol-2-yl)pyrimidin-6(1H)-one] displayed an IC50 in assay [1] of 20 nM.

The compound `O=C(NC1CCOCC1)c1cn(Cc2ccccc2)c(Nc2ccc(Oc3cccc(F)n3)cc2)nc1=O` [Compound I-280] returned an IC50 in assay [1] of 139 nM.

For the compound `O=C(NC1CCOCC1)c1cn(Cc2ccc(F)cc2)c(Nc2ccc(Oc3cccc(F)n3)cc2)nc1=O` [Compound I-281], in assay [1], it took 41 nM to reach half-maximal inhibition (IC50).

`Cc1ccc(Cn2cc(C(=O)NC3CCOCC3)c(=O)nc2Nc2ccc(Oc3cccc(F)n3)cc2)cc1` [Compound I-282] had an IC50 in assay [1] of 6 nM.

Compound `O=C(NC1CCOCC1)c1cn(Cc2cccc(F)c2)c(Nc2ccc(Oc3cccc(F)n3)cc2)nc1=O` [Compound I-283] came in with an IC50 in assay [1] of 226 nM.

`O=C(NC1CCOCC1)c1cn(Cc2ccccc2F)c(Nc2ccc(Oc3cccc(F)n3)cc2)nc1=O` [Compound I-284] yielded an IC50 in assay [1] of 42 nM.

In the case of `CCC(=O)Nc1c[nH]/c(=N\c2ccc(Oc3ccnc(C(=O)OC)c3)cc2)n(Cc2ccc(Cl)cn2)c1=O` [Compound I-287], half-maximal inhibition in assay [1] (IC50) required 356 nM.

`Cc1cnc(-c2c[nH]/c(=N\c3ccc(Oc4cccc(C(N)=O)n4)cc3)n(Cc3ccc(Cl)cc3)c2=O)o1` [Compound I-288]: in assay [1], the IC50 was 15 nM.

Regarding `CCC(=O)Nc1c[nH]/c(=N\c2ccc(Oc3ccnc(C(=O)O)c3)cc2)n(Cc2ccc(Cl)cn2)c1=O` [Compound I-289], the IC50 in assay [1] was 24 nM.

In the case of `Cc1cnc(-c2c[nH]/c(=N\c3ccc(Oc4cccc(C(=O)O)n4)cc3)n(Cc3ccc(Cl)cc3)c2=O)o1` [Compound I-290, 1-(4-chlorobenzyl)-2-[4-(6-hydroxycarbonyl-2-pyridyloxy)phenylamino]-5-(5-methyloxazol-2-yl)pyrimidin-6(1H)-one], it took 4 nM to reach half-maximal inhibition in assay [1] (IC50).

For `Cc1cnc(-c2c[nH]/c(=N\c3ccc(Oc4ccon4)cc3)n(Cc3ccc(Cl)cc3)c2=O)o1` [Compound I-294], the IC50 in assay [1] is 84 nM.

`O=C(NC1CCOCC1)c1cn(Cc2ccccn2)c(Nc2ccc(Oc3cccc(F)n3)cc2)nc1=O` [Compound I-295] registered an IC50 in assay [1] of 618 nM.

For `CN(C)C(=O)CNC(=O)c1cn(Cc2ccc(Cl)cc2)c(Nc2ccc(Oc3ccc(F)cn3)cc2)nc1=O` [Compound I-297], 21 nM corresponded to half-maximal inhibition in assay [1] (IC50).

For `Cc1ccc(Oc2ccc(Nc3nc(=O)c(C(=O)NCC(=O)N(C)C)cn3Cc3ccc(Cl)cc3)cc2)nn1` [Compound I-298], in assay [1], the IC50 worked out at 23 nM.

For the compound `CN(C)C(=O)CNC(=O)c1cn(Cc2ccc(Cl)cc2)c(Nc2ccc(Oc3cccc(F)n3)cc2)nc1=O` [Compound I-299], in assay [1], it took 18 nM to reach half-maximal inhibition (IC50).

For `O=C(Nc1cnc(Nc2ccc3nc(C(F)F)sc3c2)n(Cc2ccc(Cl)cc2)c1=O)C1CCOCC1` [Compound I-300], in assay [1], the IC50 turned out to be 15 nM.

In the case of `CCCn1c(=O)c(F)c(Nc2ccc(Oc3cccc(C#N)n3)c(C)n2)n(Cc2ccc(Cl)cc2)c1=O` [Compound I-301], the IC50 in assay [2] stood at 163 nM.

In the case of `CCCn1c(=O)c(F)c(Nc2ccc(Oc3cccc(C(=O)O)c3)cc2)n(Cc2ccc(Cl)cc2)c1=O` [Compound I-303], the IC50 in assay [2] was determined as 109 nM.

For `CCC(=O)Nc1c[nH]/c(=N\c2ccc(Oc3ccc(C(=O)OC)nn3)cc2)n(Cc2ccc(Cl)cc2)c1=O` [Compound I-305], in assay [2], the IC50 worked out at 5 nM.

Consider `CCC(=O)Nc1c[nH]/c(=N\c2ccc(Oc3ccc(C#N)nn3)cc2)n(Cc2ccc(Cl)cc2)c1=O` [Compound I-306], for which the IC50 in assay [2] was 19 nM.

Consider `O=c1c(Nc2ccon2)c[nH]/c(=N\c2ccc(Oc3ccon3)cc2)n1Cc1ccc(Cl)cc1` [Compound I-307], for which the IC50 in assay [2] stood at 21 nM.

In the case of `Cc1noc(-c2c[nH]/c(=N\c3ccc(Oc4cccc(C#N)n4)cc3)n(Cc3ccc(Cl)cc3)c2=O)n1` [Compound I-310], the IC50 in assay [2] is 16 nM.

As for `CCOC(=O)c1cnc(Oc2ccc(/N=c3\[nH]cc(-c4nc(C)no4)c(=O)n3Cc3ccc(Cl)cc3)cc2)s1` [Compound I-311], in assay [2], the IC50 is 31 nM.

Regarding `COC(=O)c1ccc(Oc2ccc(/N=c3\[nH]cc(-c4nc(C)no4)c(=O)n3Cc3ccc(Cl)cc3)cc2)nn1` [Compound I-312], the IC50 in assay [2] was 7 nM.

Take `Cc1noc(-c2c[nH]/c(=N\c3ccc(Oc4ncc(C(=O)O)s4)cc3)n(Cc3ccc(Cl)cc3)c2=O)n1` [Compound I-314]: in assay [2], the IC50 came out at 10 nM.

For `Cc1noc(-c2c[nH]/c(=N\c3ccc(Oc4ccc(C(N)=O)nn4)cc3)n(Cc3ccc(Cl)cc3)c2=O)n1` [Compound I-315], the IC50 in assay [2] came out at 10 nM.

Regarding `Cc1noc(-c2c[nH]/c(=N\c3ccc(Oc4cccc(C(N)=O)n4)cc3)n(Cc3ccc(Cl)cc3)c2=O)n1` [Compound I-316], in assay [2], the IC50 worked out at 13 nM.

Take `Cc1noc(-c2c[nH]/c(=N\c3ccc(Oc4ccc(C(=O)O)nn4)cc3)n(Cc3ccc(Cl)cc3)c2=O)n1` [Compound I-317]: the IC50 in assay [2] came out at 13 nM.

On to `O=c1c(Nc2ccon2)c[nH]/c(=N\c2ccc(Oc3ccc(F)cn3)cc2)n1Cc1ccc(Cl)cc1` [Compound I-318], for which the IC50 in assay [2] came to 27 nM.

For the compound `N#Cc1cccc(Oc2ccc(/N=c3\[nH]cc(Nc4ccon4)c(=O)n3Cc3ccc(Cl)cc3)cc2)n1` [Compound I-319], in assay [2], the IC50 stood at 19 nM.

With `COC(=O)c1cc(Oc2ccc(/N=c3\[nH]cc(Nc4ccon4)c(=O)n3Cc3ccc(Cl)cc3)cc2)ccn1` [Compound I-320], the IC50 in assay [2] is 19 nM.

In the case of `CC(C)c1c[nH]/c(=N\c2ccc(Oc3cccc(C#N)n3)cc2)n(Cc2ccc(Cl)cc2)c1=O` [Compound I-321], the IC50 in assay [2] came out at 150 nM.

Take `COCCn1c(=O)cc(Nc2ccc(Oc3cccc(C#N)n3)c(C)n2)n(Cc2ccc(Cl)cc2)c1=O` [Compound I-322]: the IC50 in assay [2] came out at 5 nM.

Regarding `COC(=O)[C@H](C)[C@H](C)n1c(=O)cc(Nc2ccc(Oc3ccc(F)cn3)cc2)n(Cc2ccc(Cl)cc2)c1=O` [Compound I-323], the IC50 in assay [2] was determined as 26 nM.

For the compound `COCCn1c(=O)cc(Nc2ccc(Oc3cccc(C(=O)O)n3)c(C)n2)n(Cc2ccc(Cl)cc2)c1=O` [Compound I-324], in assay [2], the IC50 came to 14 nM.

As for `C[C@@H](C(=O)O)[C@H](C)n1c(=O)cc(Nc2ccc(Oc3ccc(F)cn3)cc2)n(Cc2ccc(Cl)cc2)c1=O` [Compound I-325], the IC50 in assay [2] was 11 nM.

With `CCn1c(=O)cc(Nc2ccc3nc(C(F)F)sc3c2)n(Cc2ccc(Cl)cc2)c1=O` [Compound I-326], in assay [2], the IC50 amounted to 328 nM.

`Cc1nnc(-c2c[nH]/c(=N\c3ccc(Oc4cccc(C#N)n4)cc3)n(Cc3ccc(Cl)cc3)c2=O)o1` [Compound I-327]: in assay [2], the IC50 came to 34 nM.

In the case of `Cc1nnc(-c2c[nH]/c(=N\c3ccc(Oc4cccc(C(=O)O)n4)cc3)n(Cc3ccc(Cl)cc3)c2=O)o1` [Compound I-328], the IC50 in assay [2] was found to be 11 nM.

As for `Cc1nnc(-c2c[nH]/c(=N\c3ccc(Oc4cccc(C(N)=O)n4)cc3)n(Cc3ccc(Cl)cc3)c2=O)o1` [Compound I-329], the IC50 in assay [2] was found to be 20 nM.

For the compound `CCC(=O)Nc1c[nH]/c(=N\c2ccc(Oc3cccc(CCC(=O)OC)c3)cc2)n(Cc2ccc(Cl)cc2)c1=O` [Compound I-330], the concentration for half-maximal inhibition (IC50) in assay [2] stood at 366 nM.

On to `CCC(=O)Nc1c[nH]/c(=N\c2ccc(Oc3cccc(CC(=O)OC)c3)cc2)n(Cc2ccc(Cl)cc2)c1=O` [Compound I-331], for which the IC50 in assay [2] worked out at 309 nM.

Turning to `N#Cc1cccc(Oc2ccc(/N=c3\[nH]cc(N4CCCC4=O)c(=O)n3Cc3ccc(Cl)cc3)cc2)n1` [Compound I-332], the half-inhibitory concentration (IC50) in assay [2] worked out at 179 nM.

For the compound `O=C1CCCN1c1c[nH]/c(=N\c2ccc(Oc3cccc(F)n3)cc2)n(Cc2ccc(Cl)cc2)c1=O` [Compound I-333], the IC50 in assay [2] is 149 nM.

Take `CSc1cccc(Oc2ccc(/N=c3\[nH]cc(N4CCCC4=O)c(=O)n3Cc3ccc(Cl)cc3)cc2)n1` [Compound I-334]: the IC50 in assay [2] was 838 nM.

As a reminder, the IC50 is the concentration needed to halve the response being measured.
